US20080274095A1, “Biocides” (priority 2004, published 2008)
Ends that are not written are not given here.

How the values were obtained:
Caco-2 Host Cells = assay: Host cell toxicity assay by LDH release; assay type: cell-based, human
Method: Host cell toxicity assay was performed by measuring the release of lactate dehydrogenase (LDH) in the medium using a CYTOTOX 96 Non-Radioactive Cytotoxicity Assay kit (Promega, Madison, Wis.). Toxicity was therefore classified as non toxic 0-5% LDH release and mild toxicity 5-10% LDH release (ref).

[1] = tested on: panel of organisms in stationary growth phase; conditions: cited from earlier work
Caco-2 cells = assay: Caco-2 cell viability by trypan blue dye exclusion; assay type: cell-based, human; conditions: following exposure to PLA2-treated sporozoites, 24 hrs
Method: This experiment describes the effects of PLA2 on sporozoite infectivity. Briefly, sporozoites were incubated in an isotonic saline solution (37° C., 30 min) with a range of concentrations of PLA2 isolated from honey bee venom (Sigma-Aldrich Corp., St. Louis, Mo., 1.5 U/μg protein). Control sporozoites were identically incubated in buffer containing concentration-matched BSA but no PLA2. Sporozoites were then washed in medium and inoculated onto replicate Caco-2 human intestinal epithelial cell monolayers. 24 h later, infection was quantified in test and control monolayers by immunofluorescence assay as described herein and the mean percent reduction of infection calculated. […] Percent viability of Caco-2 cells following exposure to PLA2-treated sporozoites (86%) was similar to that of uninoculated control cells (91%) at 24 hrs, as determined by trypan blue dye exclusion. […] Through fusion of PLA2 to a monoclonal antibody with a high affinity for sporozoites, such as 1E10 or 4H9, lethal concentrations of biocide are deliverable to the sporozoite surface with relatively low amounts of biocide being used.

C. parvum sporozoites = assay: Effect of PLA2 on C. parvum sporozoite infectivity for Caco-2 monolayers; assay type: cell-based, Cryptosporidium parvum
Method: This experiment describes the effects of PLA2 on sporozoite infectivity. Briefly, sporozoites were incubated in an isotonic saline solution (37° C., 30 min) with a range of concentrations of PLA2 isolated from honey bee venom (Sigma-Aldrich Corp., St. Louis, Mo., 1.5 U/μg protein). Control sporozoites were identically incubated in buffer containing concentration-matched BSA but no PLA2. Sporozoites were then washed in medium and inoculated onto replicate Caco-2 human intestinal epithelial cell monolayers. 24 h later, infection was quantified in test and control monolayers by immunofluorescence assay as described herein and the mean percent reduction of infection calculated. […] Percent viability of Caco-2 cells following exposure to PLA2-treated sporozoites (86%) was similar to that of uninoculated control cells (91%) at 24 hrs, as determined by trypan blue dye exclusion. […]
For this assay, isolated sporozoites are incubated (15 min, 37° C.) with an individual biocide in isotonic buffer over a range of concentrations that would theoretically be achievable at the sporozoite surface by targeted delivery as a MAb-biocide fusion protein. […] In parallel, viability of control sporozoites after incubation with the selected biocide concentrations is determined by fluorescein diacetate assay. […] Samples are then processed and evaluated as described herein. […]

[2] = read-out: affinity constant (Km) for substrate; cited from earlier work

Compound	% LDH release (Caco-2 Host Cells; 10 μg/ml)	% LDH release (Caco-2 Host Cells; 100 μg/ml)	further results
CC[C@H](C)[C@H](NC(=O)[C@H](CCCCN)NC(=O)[C@H](CCC(=O)O)NC(=O)[C@H](CCCCN)NC(=O)[C@H](CO)NC(=O)[C@H](CCCCN)NC(=O)[C@H](CCCNC(=N)N)NC(=O)[C@H](Cc1ccccc1)NC(=O)[C@H](Cc1ccccc1)NC(=O)[C@H](CC(=O)O)NC(=O)CNC(=O)[C@H](CC(C)C)NC(=O)[C@@H](N)CC(C)C)C(=O)NCC(=O)N[C@@H](CCCCN)C(=O)N[C@@H](CCC(=O)O)C(=O)N[C@@H](Cc1ccccc1)C(=O)N[C@@H](CCCCN)C(=O)N[C@@H](CCCNC(=N)N)C(=O)N[C@H](C(=O)N[C@H](C(=O)N[C@@H](CCC(N)=O)C(=O)N[C@@H](CCCNC(=N)N)C(=O)N[C@H](C(=O)N[C@@H](CCCCN)C(=O)N[C@@H](CC(=O)O)C(=O)N[C@@H](Cc1ccccc1)C(=O)N[C@@H](CC(C)C)C(=O)N[C@@H](CCCNC(=N)N)C(=O)N[C@@H](CC(N)=O)C(=O)N[C@@H](CC(C)C)C(=O)N[C@H](C(=O)N1CCC[C@H]1C(=O)N[C@@H](CCCNC(=N)N)C(=O)N[C@H](C(=O)N[C@@H](CCC(=O)O)C(=O)N[C@@H](CO)C(=O)O)[C@@H](C)O)C(C)C)[C@@H](C)CC)C(C)C)[C@@H](C)CC [CAT, cathelicidin]	1.6 ± 0.3 %	5.6 ± 0.9 %	
HNP-1: human neutrophil defensin, SEQ ID NO 38			antimicrobial properties relative to other defensins [1]: most potent antimicrobial properties
NP-1: rabbit neutrophil defensin, SEQ ID NO 42 (VVCACRRALCLPRERRAGFCRIRGRIHPLCCRR)			antimicrobial properties relative to other defensins [1]: most potent antimicrobial properties
b-defensin 1 (DHYNCVSSGGQCLYSACPIFTKIQGTCYRGKAKCCK; ends and bridges not checked; cysteine pairing not given here; UniProt P60022 33-68, looked up) [βD1, Peptides international]	0.8 ± 1.0%	2.3 ± 2.1%	
b-defensin 2 [βD2]	−0.9 ± 0.5%	5.3 ± 1.5 %	
bee-venom phospholipase A2 [PLA2]		0.7 ± 0.7%	Percent viability of Caco-2 cells (Caco-2 cells): 86%; concentration effective in neutralization (C. parvum sporozoites; preliminary data): < 0.02 units/ml; concentration achieving highly significant reduction of sporozoite infectivity (C. parvum sporozoites; sporozoites incubated 37° C., 30 min with bee venom PLA2, Caco-2 monolayers, 24 h, P<0.0005): ≤ 0.014 U/ml
indolicidin	0.9 ± 0.7%	8.3 ± 3.5 %	
lactoferricin B [LFB]	3.7 ± 2.3%	2.6 ± 2.0%	
lysozyme [LYZ]		−1.9 ± 1.3%	Km [2]: ~1000 µM
phospho-inositol specific phospholipase C [PI-PLC]		−1.4 ± 0.9%	
phospholipase A2			Km [2]: ~100 µM
